Assay results reported in US20130096170A1 (priority 2011, published 2013).
Like-named read-outs stand apart in the source and are kept apart here.

How the values were obtained:
[1] = cited from earlier work
clinical = conditions: human; for Tmax: Tmax Mean
[2] = Su et al. model, subject 7.7 months, 7 kg, total bypass time 57 minutes
[3] = noncompartmental analysis of the adult long-term use data
[4] = population PK of 4 pooled pediatric intensive care studies (1 week to 14 years)
[5] = typical subject, adult population PK analysis of long-term (>24 h) use

## Cc1cccc([C@H](C)c2cnc[nH]2)c1C [dexmedetomidine]
[1]; [2]
  CL: 7.26 L/h
  Q: 24.1 L/h
  Vc: 8.4 L
  Vp: 10.2 L
[1]; [3]
  CL: 39.4 L/h
  volume of distribution: 152 L
[1]; [4]
  CL standardized to a 70-kg adult: 42.1 L/h
  volume of distribution standardized to a 70-kg adult: 125.3 L
[1]; product label for Precedex
  volume of distribution: 118 L
[1]; product label for Precedex, mean body weight 72 kg
  CL: 39 L/h
[1]; [5]
  CL: 35.8 L/h
  volume of distribution: 112.7 L
clinical; in vivo
  Vd: 43 L
clinical; in vivo, AUC0-t
  AUC(0-t): 117 ng·h/mL
clinical; in vivo, AUC0-∞
  AUC(0-inf): 117 ng·h/mL
clinical; in vivo, Cmax
  Cmax: 28.8 ng/mL
clinical; in vivo, weight-adjusted clearance
  clearance: ~1 L/h/kg
clinical; plasma, intravenous, 0.2 ug/kg, CL, Group I (≥2 to <6 y), Dose Level 1 (LD 0.25/CD 0.2 μg/kg/hr), geometric mean, full evaluable population
  clearance: 271 mL/min
clinical; plasma, intravenous, 0.2 ug/kg, CL, Group II (≥6 to <17 y), Dose Level 1 (LD 0.25/CD 0.2 μg/kg/hr), geometric mean, full evaluable population
  clearance: 412 mL/min
clinical; plasma, intravenous, 0.2 ug/kg, Vd, Group I (≥2 to <6 y), Dose Level 1 (LD 0.25/CD 0.2 μg/kg/hr), geometric mean, full evaluable population
  Vd: 36.9 L
clinical; plasma, intravenous, 0.2 ug/kg, Vd, Group II (≥6 to <17 y), Dose Level 1 (LD 0.25/CD 0.2 μg/kg/hr), geometric mean, full evaluable population
  Vd: 51.7 L
clinical; plasma, intravenous, 0.4 ug/kg, CL, Group I (≥2 to <6 y), Dose Level 2 (LD 0.50/CD 0.4 μg/kg/hr), geometric mean, full evaluable population
  clearance: 212 mL/min
clinical; plasma, intravenous, 0.4 ug/kg, CL, Group II (≥6 to <17 y), Dose Level 2 (LD 0.50/CD 0.4 μg/kg/hr), geometric mean, full evaluable population
  clearance: 413 mL/min
clinical; plasma, intravenous, 0.4 ug/kg, Vd, Group I (≥2 to <6 y), Dose Level 2 (LD 0.50/CD 0.4 μg/kg/hr), geometric mean, full evaluable population
  Vd: 31.8 L
clinical; plasma, intravenous, 0.4 ug/kg, Vd, Group II (≥6 to <17 y), Dose Level 2 (LD 0.50/CD 0.4 μg/kg/hr), geometric mean, full evaluable population
  Vd: 61.2 L
clinical; plasma, intravenous, 0.7 ug/kg, CL, Group I (≥2 to <6 y), Dose Level 3 (LD 1.00/CD 0.7 μg/kg/hr), geometric mean, full evaluable population
  clearance: 276 mL/min
clinical; plasma, intravenous, 0.7 ug/kg, CL, Group II (≥6 to <17 y), Dose Level 3 (LD 1.00/CD 0.7 μg/kg/hr), geometric mean, full evaluable population
  clearance: 274 mL/min
clinical; plasma, intravenous, 0.7 ug/kg, Vd, Group I (≥2 to <6 y), Dose Level 3 (LD 1.00/CD 0.7 μg/kg/hr), geometric mean, full evaluable population
  Vd: 46.6 L
clinical; plasma, intravenous, 0.7 ug/kg, Vd, Group II (≥6 to <17 y), Dose Level 3 (LD 1.00/CD 0.7 μg/kg/hr), geometric mean, full evaluable population
  Vd: 46.6 L
clinical; plasma, intravenous, 2 ug/kg, CL, Group I (≥2 to <6 y), Dose Level 4 (LD 1.00/CD 2.00 μg/kg/hr), geometric mean, full evaluable population
  clearance: 199 mL/min
clinical; plasma, intravenous, 2 ug/kg, CL, Group II (≥6 to <17 y), Dose Level 4 (LD 1.00/CD 2.00 μg/kg/hr), geometric mean, full evaluable population
  clearance: 423 mL/min
clinical; plasma, intravenous, 2 ug/kg, Vd, Group I (≥2 to <6 y), Dose Level 4 (LD 1.00/CD 2.00 μg/kg/hr), geometric mean, full evaluable population
  Vd: 36.3 L
clinical; plasma, intravenous, 2 ug/kg, Vd, Group II (≥6 to <17 y), Dose Level 4 (LD 1.00/CD 2.00 μg/kg/hr), geometric mean, full evaluable population
  Vd: 72.8 L
clinical; plasma, intravenous, AUC0-t Mean, Dose Level 1, LD 0.25/CD 0.2 μg/kg/hr, full evaluable population
  AUC(0-t): 2.68 ng·h/mL
clinical; plasma, intravenous, AUC0-t Mean, Dose Level 2, LD 0.50/CD 0.4 μg/kg/hr, full evaluable population
  AUC(0-t): 6.46 ng·h/mL
clinical; plasma, intravenous, AUC0-t Mean, Dose Level 3, LD 1.00/CD 0.7 μg/kg/hr, full evaluable population
  AUC(0-t): 17 ng·h/mL
clinical; plasma, intravenous, AUC0-t Mean, Dose Level 4, LD 1.00/CD 2.00 μg/kg/hr, full evaluable population
  AUC(0-t): 28.5 ng·h/mL
clinical; plasma, intravenous, AUC0-t Median, Dose Level 1, LD 0.25/CD 0.2 μg/kg/hr, full evaluable population
  AUC(0-t): 1.54 ng·h/mL
clinical; plasma, intravenous, AUC0-t Median, Dose Level 2, LD 0.50/CD 0.4 μg/kg/hr, full evaluable population
  AUC(0-t): 5.25 ng·h/mL
clinical; plasma, intravenous, AUC0-t Median, Dose Level 3, LD 1.00/CD 0.7 μg/kg/hr, full evaluable population
  AUC(0-t): 5.61 ng·h/mL
clinical; plasma, intravenous, AUC0-t Median, Dose Level 4, LD 1.00/CD 2.00 μg/kg/hr, full evaluable population
  AUC(0-t): 25.4 ng·h/mL
clinical; plasma, intravenous, AUC0-t, Table 30 key summary (mean), Dose Level 1, LD 0.25/CD 0.2 μg/kg/hr, full evaluable population
  AUC(0-t): 2.68 ng·h/mL
clinical; plasma, intravenous, AUC0-t, Table 30 key summary (mean), Dose Level 2, LD 0.50/CD 0.4 μg/kg/hr, full evaluable population
  AUC(0-t): 6.46 ng·h/mL
clinical; plasma, intravenous, AUC0-t, Table 30 key summary (mean), Dose Level 3, LD 1.00/CD 0.7 μg/kg/hr, full evaluable population
  AUC(0-t): 17 ng·h/mL
clinical; plasma, intravenous, AUC0-t, Table 30 key summary (mean), Dose Level 4, LD 1.00/CD 2.00 μg/kg/hr, full evaluable population
  AUC(0-t): 28.5 ng·h/mL
clinical; plasma, intravenous, AUC0-∞ Mean, Dose Level 1, LD 0.25/CD 0.2 μg/kg/hr, full evaluable population
  AUC(0-inf): 3.15 ng·h/mL
clinical; plasma, intravenous, AUC0-∞ Mean, Dose Level 2, LD 0.50/CD 0.4 μg/kg/hr, full evaluable population
  AUC(0-inf): 6.67 ng·h/mL
clinical; plasma, intravenous, AUC0-∞ Mean, Dose Level 3, LD 1.00/CD 0.7 μg/kg/hr, full evaluable population
  AUC(0-inf): 17.3 ng·h/mL
clinical; plasma, intravenous, AUC0-∞ Mean, Dose Level 4, LD 1.00/CD 2.00 μg/kg/hr, full evaluable population
  AUC(0-inf): 29 ng·h/mL
clinical; plasma, intravenous, AUC0-∞ Median, Dose Level 1, LD 0.25/CD 0.2 μg/kg/hr, full evaluable population
  AUC(0-inf): 1.58 ng·h/mL
clinical; plasma, intravenous, AUC0-∞ Median, Dose Level 2, LD 0.50/CD 0.4 μg/kg/hr, full evaluable population
  AUC(0-inf): 5.52 ng·h/mL
clinical; plasma, intravenous, AUC0-∞ Median, Dose Level 3, LD 1.00/CD 0.7 μg/kg/hr, full evaluable population
  AUC(0-inf): 6.08 ng·h/mL
clinical; plasma, intravenous, AUC0-∞ Median, Dose Level 4, LD 1.00/CD 2.00 μg/kg/hr, full evaluable population
  AUC(0-inf): 25.7 ng·h/mL
clinical; plasma, intravenous, AUC0-∞, Table 30 key summary (mean), Dose Level 1, LD 0.25/CD 0.2 μg/kg/hr, full evaluable population
  AUC(0-inf): 3.15 ng·h/mL
clinical; plasma, intravenous, AUC0-∞, Table 30 key summary (mean), Dose Level 2, LD 0.50/CD 0.4 μg/kg/hr, full evaluable population
  AUC(0-inf): 6.67 ng·h/mL
clinical; plasma, intravenous, AUC0-∞, Table 30 key summary (mean), Dose Level 3, LD 1.00/CD 0.7 μg/kg/hr, full evaluable population
  AUC(0-inf): 17.3 ng·h/mL
clinical; plasma, intravenous, AUC0-∞, Table 30 key summary (mean), Dose Level 4, LD 1.00/CD 2.00 μg/kg/hr, full evaluable population
  AUC(0-inf): 29 ng·h/mL
clinical; plasma, intravenous, CL Mean, Dose Level 1, LD 0.25/CD 0.2 μg/kg/hr, full evaluable population
  clearance: 537 mL/min
clinical; plasma, intravenous, CL Mean, Dose Level 2, LD 0.50/CD 0.4 μg/kg/hr, full evaluable population
  clearance: 338 mL/min
clinical; plasma, intravenous, CL Mean, Dose Level 3, LD 1.00/CD 0.7 μg/kg/hr, full evaluable population
  clearance: 309 mL/min
clinical; plasma, intravenous, CL Mean, Dose Level 4, LD 1.00/CD 2.00 μg/kg/hr, full evaluable population
  clearance: 370 mL/min
clinical; plasma, intravenous, CL Median, Dose Level 1, LD 0.25/CD 0.2 μg/kg/hr, full evaluable population
  clearance: 326 mL/min
clinical; plasma, intravenous, CL Median, Dose Level 2, LD 0.50/CD 0.4 μg/kg/hr, full evaluable population
  clearance: 267 mL/min
clinical; plasma, intravenous, CL Median, Dose Level 3, LD 1.00/CD 0.7 μg/kg/hr, full evaluable population
  clearance: 270 mL/min
clinical; plasma, intravenous, CL Median, Dose Level 4, LD 1.00/CD 2.00 μg/kg/hr, full evaluable population
  clearance: 282 mL/min
clinical; plasma, intravenous, CL, Table 30 key summary (mean), Dose Level 1, LD 0.25/CD 0.2 μg/kg/hr, full evaluable population
  clearance: 537 mL/min
clinical; plasma, intravenous, CL, Table 30 key summary (mean), Dose Level 2, LD 0.50/CD 0.4 μg/kg/hr, full evaluable population
  clearance: 338 mL/min
clinical; plasma, intravenous, CL, Table 30 key summary (mean), Dose Level 3, LD 1.00/CD 0.7 μg/kg/hr, full evaluable population
  clearance: 310 mL/min
clinical; plasma, intravenous, CL, Table 30 key summary (mean), Dose Level 4, LD 1.00/CD 2.00 μg/kg/hr, full evaluable population
  clearance: 370 mL/min
clinical; plasma, intravenous, Cmax Mean, Dose Level 1, LD 0.25/CD 0.2 μg/kg/hr, full evaluable population
  Cmax: 0.48 ng/mL
clinical; plasma, intravenous, Cmax Mean, Dose Level 2, LD 0.50/CD 0.4 μg/kg/hr, full evaluable population
  Cmax: 0.848 ng/mL
clinical; plasma, intravenous, Cmax Mean, Dose Level 3, LD 1.00/CD 0.7 μg/kg/hr, full evaluable population
  Cmax: 3.39 ng/mL
clinical; plasma, intravenous, Cmax Mean, Dose Level 4, LD 1.00/CD 2.00 μg/kg/hr, full evaluable population
  Cmax: 3.09 ng/mL
clinical; plasma, intravenous, Cmax Median, Dose Level 1, LD 0.25/CD 0.2 μg/kg/hr, full evaluable population
  Cmax: 0.266 ng/mL
clinical; plasma, intravenous, Cmax Median, Dose Level 2, LD 0.50/CD 0.4 μg/kg/hr, full evaluable population
  Cmax: 0.581 ng/mL
clinical; plasma, intravenous, Cmax Median, Dose Level 3, LD 1.00/CD 0.7 μg/kg/hr, full evaluable population
  Cmax: 0.966 ng/mL
clinical; plasma, intravenous, Cmax Median, Dose Level 4, LD 1.00/CD 2.00 μg/kg/hr, full evaluable population
  Cmax: 2.69 ng/mL
clinical; plasma, intravenous, Cmax, Table 30 key summary (mean), Dose Level 1, LD 0.25/CD 0.2 μg/kg/hr, full evaluable population
  Cmax: 0.48 ng/mL
clinical; plasma, intravenous, Cmax, Table 30 key summary (mean), Dose Level 2, LD 0.50/CD 0.4 μg/kg/hr, full evaluable population
  Cmax: 0.848 ng/mL
clinical; plasma, intravenous, Cmax, Table 30 key summary (mean), Dose Level 3, LD 1.00/CD 0.7 μg/kg/hr, full evaluable population
  Cmax: 3.39 ng/mL
clinical; plasma, intravenous, Cmax, Table 30 key summary (mean), Dose Level 4, LD 1.00/CD 2.00 μg/kg/hr, full evaluable population
  Cmax: 3.09 ng/mL
clinical; plasma, intravenous, Dose Level 1, LD 0.25/CD 0.2 μg/kg/hr, full evaluable population
  Tmax: 7.31 h
clinical; plasma, intravenous, Dose Level 2, LD 0.50/CD 0.4 μg/kg/hr, full evaluable population
  Tmax: 8.8 h
clinical; plasma, intravenous, Dose Level 3, LD 1.00/CD 0.7 μg/kg/hr, full evaluable population
  Tmax: 2.17 h
